Test results taken from the NIST ThermoML archive (doi:10.1021/je050296u).
Numbers after ± are expanded uncertainties.

experiment: mn = molality of the nth substance listed, in mol/kg; details: 298.15 K; 101.33 kPa; Liquid; Calvet calorimetry; m1 = 0.1

| apparent molar enthalpy [kcal/mol] | SMILES |
| --- | --- |
| 3.38 ± 0.0574 | NCC(=O)O [2-aminoacetic acid] + O |
| 1.81 ± 0.0359 | C[C@H](N)C(=O)O [(S)-2-aminopropanoic acid] + O |
| 2.71 ± 0.0478 | N[C@@H](CO)C(=O)O [L-serine] + O |
